Test results: patent US20030152562A1, “Vitro micro-organs, and uses related thereto” (Yissum Research Development Company of the Hebrew …, priority 2001, published 2003)
“Also recorded” adds a separate entry of the source.

What was measured:
Format in all cases: cell-based
guinea-pig skin cultures = assay: BrdU labeling assay of cell proliferation (DNA synthesis) in skin micro-organ cultures; details: FIG. 12
Description: Fresh skin was obtained after surgery, cleaned from underlying fat tissue and cut into 0.4×5 cm flaps, which are then transversely sectioned, using a tissue chopper or other suitable cutting means into 300 μm sections under sterile conditions so that the final tissue segments had dimensions of 4 mm in width and 0.3 mm in thickness (see FIG. 1). These micrograns were placed in a 24-well microplate in 400 μl of DMEM in the absence of serum under 5% CO2 at 37° C., under constant shaking at 12 rpm for periods of one to eight days. Twenty micro-explants were grown per well.
Micro-organ cultures were prepared according to Example I and proliferation of the cells was measured by analyzing the amount of DNA synthesis as follows. […]
The cultures were prepared and maintained in defined medium in similar growth conditions as described in Example I. Control samples were analyzed by immunocytochemistry to determine that the micro-organ culture was maintained in a manner that was similar to that occurring in vivo.
Duplicated samples of skin micro-cultures were treated with TGF-β at 2.5 ng/ml. A quantitative analysis of the number of BrdU labeled cells/explant was performed according to Example II.

New born mouse skin = assay: Hair shaft growth in new born mouse skin micro-organ cultures; details: skin from 30 hr-old mouse, 3 days in culture, 1 ng/ml EGF
Description: New born mouse skin was obtained after surgery, cleaned of underlying fat tissue and cut into 0.4×5 cm flaps, which were then transversely sectioned, using a tissue chopper or other suitable cutting devise into 300 μm sections. The micro-organs were placed in microplates in DMEM in the absence of serum under 5% CO2 at 37° C. under constant shaking for periods of 1 to 14 days. Certain of the micro-organ explants were contacted with a growth factor, e.g., FGF, which was added to the culture media. The medium was changed every 2 days.
New born “hairless” skin can be induced to produce hair shafts when grown in MC cultures.

epidermal cells = assay: Inhibition of proliferation of epidermal cells

Substance: TGF-β
- effect on cell proliferation / mitogenesis in skin micro-organ cultures (guinea-pig skin cultures; 2.5 ng/ml, guinea-pig skin cultures): inhibitor of cell proliferation; also recorded: inhibition of mitogenesis
- inhibition of DNA synthesis (number of BrdU labeled cells/explant) compared with controls (guinea-pig skin cultures; TGF-β at 2.5 ng/ml, skin micro-cultures in defined medium): Greater than 90%

Substance: EGF: epidermal growth factor added to culture medium (NSDSECPLSHDGYCLHDGVCMYIEALDKYACNCVVGYIGERCQYRDLKWWELR; UniProt P01133 971-1023, looked up)
- hair shaft development in explants (New born mouse skin): development of hair shafts in the explants

Substance: Activin
- effect on proliferation of epidermal cells (epidermal cells): inhibit proliferation of epidermal cells
